The test system of one series is plasma insulin. The series can be described thus: Plasma insulin at 24 h after OGTT in lean male SPD rats. In kind it is in vivo, Sprague-Dawley (SPD) rats. Particulars: non-significant. Here is the method: Evaluation of the Acute Effects of Compound a and Compound B Upon Active GLP-1 wconcentrations during an oral glucose tolerance test (OGTT) and at 24 h in lean male SPD Rats
To establish the acute effects of oral administration of Compound A and Compound B upon active GLP-1 and insulin concentrations, lean (about 300 g) male Sprague-Dawley (SPD) rats were divided into groups (n=6-8) and fed 74 and 84 mg/kg body weight of Compound A or Compound B respectively, either with or without concurrent administration of a dipeptidyl peptidase 4 (DPP-4) inhibitor 60 minutes prior to an oral glucose tolerance test (OGTT) as outlined below. Parallel groups receiving either corn oil alone (corn oil+vehicle, n=10) or corn oil and a DPP-4 inhibitor (“DPP-4 i”) (corn oil+(DPP-4 i), n=10) were included as controls. The DPP-4 inhibitor was linagliptin.
A second oral dose of 74 and 84 mg/kg bodyweight of Compound A or Compound B respectively was administered at 240 minutes and ad lib feeding was initiated. A second dose of DPP-4 inhibitor was administered at 480 mins prior to lights out. Blood samples were collected at 24 h for measurement of active GLP-1 and insulin. All values are mean, figures depict mean values (SEM).

Series [1] deals with B6.V-Lepob/Jrj mice (ob/ob), T2DM rodent model. The series can be described thus: Glucose tolerance (0-120 mins) after 28-day treatment in ob/ob mice. Particulars: 28 days; for glucose tolerance: 2 g/kg oral glucose load. It counts as in vivo. On the procedure:
This study was carried out to assess the effects of chronic treatment with Compound B or Compound A on glucose tolerance in a T2DM rodent model.
For assessing the effects of Compound B, B6.V-Lepob/Jrj mice (ob/ob) mice were administered Compound B at one of 2 doses, 125 and 250 mg/kg for 28 days. […] After the oral glucose load, plasma glucose was measured at multiple time points from and AUC (0-120 mins) for glucose was calculated.

Series [2] in a line: Intestinal tissue distribution of radioactivity by quantitative whole-body autoradiography (QWBA). It counts as in vivo, male albino rats. Particulars: single oral 50 mg/kg [14C]-Compound B. Here is the method:
Biological Example 7. Concentrations of Radioactivity in Intestinal Segments of Male Albino Rats after a Single Oral Administration of [14C]-Compound B at a Nominal Dose Level of 50 mg/kg Body Weight
This study was conducted to determine the intestinal tissue distribution of radioactivity in male albino rats following a single oral administration of [14C]-Compound B using quantitative whole-body autoradiography (QWBA). The tissue distribution in rats following a single oral dose of [14C]-Compound B at 50 mg/kg (Ca 5 MBq/kg) was studied by QWBA analysis up to 168 hours after dosing.

A further series has as its system DSS-induced colitis mice. The series can be described thus: DSS-induced colitis mouse model (body weight, colon length, survival, histology). In kind it is in vivo, C56BL/6J mouse. Particulars: for colon length compared to control: 7 days DSS. An excerpt: Evaluation of Effects of Compound B on Intestinal Inflammation in DSS-Induced Colitis Mice
The dextran sodium sulphate-induced (DSS)-induced colitis model is well known in the art as a reproducible chemical induction of intestinal inflammation animal model. See, e.g., Eichele et al., World J Gastroenterol, 2017, 23(33):6016-6029; Randhawa et al., Korean J. Physiol. Pharmacol. (2014) 18:279-288; Jurjus et al., J. Pharmacol. Toxicol., Methods, 2004, 50:81-92; Gaudio et al., Dig. Dis. Sci., 1999, 44:1458-1475. The DSS-induced colitis model morphologically and symptomatically resembles epithelial damage seen in human IBD, and thus has become the most extensively employed experimental model of intestinal inflammation. Okayasu et al., Gastroenterology, 1990, 98:694-702; Kawada et al., World J. Gastroenterol. 2007, 13:5581-5593. The DSS-induced colitis model is most similar to ulcerative colitis in humans, but also has many similarities to Crohn's disease.
DSS is a water soluble, negatively charged sulfated polysaccharide with a highly variable molecular weight ranging from 5 to 1400 kDa. Murine colitis results from administration of about 1% to 3% DSS to the drinking water of a mouse strain susceptible to DSS-induced colitis. Without being bound by theory, the sulfated polysaccharide may not directly induce intestinal inflammation, but may instead act as a direct chemical toxin to colonic epithelium resulting in epithelial cell injury. It is thought that DSS disrupts the intestinal epithelial monolayer lining, leading to the entry of luminal bacteria and associated antigens into the mucosa and allowing the dissemination of proinflammatory intestinal contents into underlying tissue. […] Perse et al., J. Biomed. Biotechnol., 2012:718617.
The C56BL/6J mouse is a strain susceptible to DSS-induced colitis. To evaluate the efficacy and dosage of Compound B in treatment of DSS-induced colitis, inflammation was induced in 30 9-week old C56BL/6J mice by adding 1.5% DSS to the drinking water for 7 days. The mice were fed a standard chow diet that consisted of 30 weight percent wheat. The mice were divided into three groups of 10, and for each day of DSS administration each group was administered via oral gavage either (1) 100 μL corn oil per day (Control), (2) 126 mg/kg Compound B (dissolved in 100 μL corn oil) per day (“Compound B—Low” or “Compound B—L”), or (3) 252 mg/kg Compound B (dissolved in 100 μL corn oil) per day (“Compound B—High” or “Compound B—H”). Following the 7-day period of DSS induction, mice were sacrificed and their intestinal tissue was used for histopathological and gene expression analysis.
To assess the efficacy of Compound B in the treatment of DSS-induced colitis in mice, the body weight of mice was monitored. Weight loss is an indicator of colitis severity.
To assess the efficacy of Compound B in the treatment of DSS-induced colitis in mice, colon length of test mice was measured. Colon length correlates inversely with inflammation.
50% (n=5) of untreated mice in the control group were alive 7 days after colitis was induced, compared to 90% (n=9) of mice treated with the low dose of Compound B, and 100% (n=10) of mice treated with the high dose of compound B. Deaths in the control group were due to sepsis and severe colon inflammation. Thus, Compound B has a statistically significant effect on survival rate in colitis mice.
Histopathological analysis was performed on sections of formalin-fixed paraffin embedded tissue after hematoxylin and eosin (H&E) staining. Colonic samples were analyzed by histopathology for assignment of scores for colitis activity as described in Neurath et al., J. Exp. Med., 2002, 195:1129-1143. Briefly, the degrees of inflammation and epithelial and mucosal injury on microscopic cross-sections of the colon were graded semi-quantitatively from 0 to 4. […]

The test system of the next series is atherogenic lipids. Particulars: APOE*3.CETP mice; cited from earlier work.
[3] abbreviates: 250 mg/kg once daily oral gavage.

With `CC/C=C\C/C=C\C/C=C\C/C=C\C/C=C\CCCCSC(CC)(CC)C(=O)O` [Compound B, 2-ethyl-2-((5Z,8Z,11 Z,14Z,17Z)-icosa-5,8,11,14,17-pentaenylthio)butanoic acid], the “increase of plasma insulin concentrations at 24 h versus corn oil+vehicle and corn oil+DPP4 inhibitor” value in the series on plasma insulin (compound alone) was 25%. Moreover, the “increase of plasma insulin concentrations at 24 h versus corn oil+vehicle and corn oil+DPP4 inhibitor” value in the series with plasma insulin (in combination with DPP4 inhibitor (linagliptin)) is listed as 40%. Besides, the glucose tolerance result in series [1] (125 mg/kg once daily oral gavage) is recorded as “improved glucose tolerance”. In series [1] (setting [3]), the “AUC (0-120 mins) glucose” value was “potent and highly significant (p<0.001) reduction”; the glucose tolerance result is given as “improved glucose tolerance”. Besides, in series [2], the “accumulation in the caecum (time span)” value is listed as “from 4 hours onwards to 1 day”, the “accumulation in the large intestine (time)” value was found to be 8 h and the “time of peak concentrations in the small intestinal mucosa” value stood at 4 h. The “difference in weight loss, control vs. treated” value with DSS-induced colitis mice (126 mg/kg per day (Compound B—Low)) is recorded as “statistically significant after 7 days”. The “colon length compared to control” value in the series on DSS-induced colitis mice (126 mg/kg per day (low dose)) was “significant increase in colon length”. Further, in the series with DSS-induced colitis mice (252 mg/kg per day (Compound B—High)), the “difference in weight loss, control vs. treated” value is recorded as “statistically significant after 6 days”. In the series on DSS-induced colitis mice (252 mg/kg per day (high dose)), the “histological cross-sections of colon: morphology” value is recorded as “almost complete rescue”; the “histological scores of colonic samples versus untreated mice” value is recorded as “significantly lower”; the “inflammation and epithelial and mucosal injury versus untreated mice” value is on record as “lower”; the “colon length compared to control” value was “significant increase in colon length”. In the series with DSS-induced colitis mice (126 and 252 mg/kg per day), the “histological cross-sections of colon: inflammatory infiltrates, edema, villus architecture” value is “dose-dependent attenuation of inflammatory infiltrates and edema”. Also, in the series on DSS-induced colitis mice (126 and 252 mg/kg per day oral gavage, 1.5% DSS for 7 days), the “weight loss compared to the control group” value is “dose-dependent reduction in weight loss”. Also, in the series on atherogenic lipids, the atherogenic lipids result is “significantly reduce atherogenic lipids”.

Source of the values: patent US20210290576A1, “STRUCTURALLY MODIFIED FATTY ACIDS FOR IMPROVING GLYCEMIC CONTROL AND TREATING INFLAMMATORY BOWEL DISEASE” (NORTHSEA THERAPEUTICS B.V., priority 2018, published 2021).
